These results are taken from patent publication US20260183276A1, “miRNA DYSREGULATION CORRECTION AS A STRATEGY TO TREAT HUNTINGTON'S DISEASE” (The Chinese University of Hong Kong, priority 2022, published 2026).

pIC50: −log10 of the molar value.

Series [1] relates to EGFP-Htt1-550CAG89-expressing mouse primary cortical neurons. The experiment in a line: Immunocytochemistry of synaptic markers and neurites, EGFP-Htt1-550CAG89-expressing primary cortical neurons. In kind it is cell-based. The note with it: 400 nM BCH001, 72 hours. The procedure:
E16-embryos of C57BL6J wildtype mice were sacrificed to obtain the mouse primary cortical neurons as previously described (Peng et al., 2021). In brief, cortical lobes were dissected out in ice-cold PBS-glucose. Meninges were removed and cortices were digested in trypsin solution. Primary cortical neurons were cultured on poly-[…]-coated (0.05 mg/ml) glass coverslips in 24-well plates (50,000 cells per well) and maintained in a 37° C. humidified cell culture incubator supplemented with 5% CO2. Prior to transfection and drug treatment, neurons were cultured for 5 days. Mature primary neurons were transfected with DNA constructs together with Lipofectamine LTX and Plus Reagent (Thermo Fisher Scientific). Following the manufacturer's protocol, at 4 hours post-transfection culture medium was refreshed and 400 nM of BCH001 was added to the medium. Neurons were further incubated for 72 hours to allow recovery and ectopic expression. Neurons were fixed with 4% paraformaldehyde for 10 minutes, followed by permeabilization (0.2% Triton X-100) for another 10 minutes and blocking (1% BSA) for 1 hour at room temperature. Primary antibody incubation was performed in 1% BSA overnight at 4° C. After washing steps, neurons were incubated with secondary antibodies in 1% BSA in dark for 1 hour at room temperature. Samples were counterstained with 1 μg/ml 4,6-diamidino-2-phenylindole (DAPI) solution for nuclei visualization and then washed with PBS, followed by mounting and examined under a confocal microscope (Leica TCS SP8 high speed imaging system). To examine the neurite arborization and quantify the synaptic markers, primary neurons were stained with MAP2 (1:10,000; ab5392, Abcam) and Synapsin I (1:200; ab8, Abcam), Bassoon (1:200; ab110426, Abcam) or Homer1 (1:200; ab97593, Abcam) antibodies. The z stacked maximal projected images were used for statistical analyses using Photoshop 2020 (Adobe Systems). Ten EGFP-positive neurons per replica were used for the statistical analysis.

In a further series the test system is A-beta peptide toxicity. In words: A-beta1-42 peptide transgenic Drosophila model of Alzheimer's Disease. In kind it is in vivo. The note with it: A-beta1-42 transgenic Drosophila.
Series [2] deals with TAK1-MKK4-JNK pro-apoptotic signaling in PAPD5-overexpressing cells. The experiment in a line: Western blotting of TAK1-MKK4-JNK caspase cascade, PAPD5-overexpressing cells. In kind it is cell-based. Here is the method: (§1) SK-N-MC cells (ATCC) were cultured in DMEM (GE Healthcare BioSciences) supplemented with 10% fetal bovine serum and 1% penicillin-streptomycin. Cells were maintained in a 37° C. humidified cell culture incubator supplemented with 5% CO2. Plasmid DNA and siRNA/synthetic miRNA transfection was performed using Lipofectamine 2000 (Thermo Fisher Scientific) and Lipofectamine RNAiMAX (Thermo Fisher Scientific), respectively.
(§2) Proteins were extracted from SK-N-MC cells or mouse primary cortical neurons using SDS sample buffer. For protein extraction from mice, half of the brain was homogenized in protein lysis buffer (50 mM Tris-HCl, pH 7.6, 150 mM NaCl, 10% NP40, 5% sodium deoxycholate). All protein samples were boiled at 99° C. for 10 minutes, prior to Western blotting. Primary antibodies used were anti-PAPD5 (PA5-46747, 1:1,000) from Invitrogen; anti-p-TAK1 (4536, 1:1,000), anti-t-TAK1 (4505, 1:2,000), anti-p-MKK4 (9156, 1:1,000), anti-t-MKK4 (9152, 1:2,000), anti-p-MKK7 (4171, 1:1,000), anti-t-MKK7 (4172, 1:2,000), anti-p-JNK (9251, 1:2,000), anti-t-JNK (9252, 1:2,000), anti-TAB1 (3226, 1:2,000), anti-TAB2 (3745, 1:2,000), anti-cleaved caspase 3 (9664, 1:500) and anti-myc (2276, 1:2,000) from Cell Signaling Technology; antipolyQ (P1874, 1:1,000) and anti-HA (H3663, 1:2,000) from Sigma-Aldrich; anti-YY1 (ab109237, 1:2000) and anti-β-tubulin (ab6046, 1:2,000) from Abcam, and anti-GFP (JL-8, 1:4,000) from Clontech. Secondary antibodies used were goat anti-rabbit (11035-045, 1:5,000) and goat anti-mouse (115-035-062, 1:5,000) from Jackson ImmunoResearch.
Background: In western blotting, separated proteins are transferred to a membrane and probed.

A further series addresses PAPD5 (Homo sapiens, UniProt Q8NDF8). The note with it: cited from earlier work.
Series [3] relates to HttQ93-induced retinal neurodegeneration. In words: Pseudopupil assay, HttQ93 Drosophila model of Huntington's Disease. The series is classed as in vivo. The note with it: 10 uM BCH001, gmr-GAL4 driver. The procedure:
Fly lines gmr-Gal4 (Ellis et al., 1993), UAS-DsRedCAG0/100 (Li et al., 2008), UAS-Htt exon1Q93 (Steffan et al., 2001), UAS-flMJDQ27/84 (Warrick et al., 2005), UASCTG60/480 (Garcia-Lopez et al., 2008) and UAS-EGFP-CGG90 (Jin et al., 2003) were described previously. The UAS-PAPD5 dsRNA line (GD19799, GD41096, and GD45261) was obtained from Vienna Drosophila RNAi Center. All flies were maintained in cornmeal culture medium and genetic crosses were set up in a 21.5° C. incubator (LMS, Sevenoaks, Kent, UK).
12 days-post-eclosion (dpe) adult flies were used for the pseudopupil assay as described previously (Wong et al., 2008). Each fly eye was examined using an Olympus CX31 stereomicroscope. The images of ommatidia were captured using a SPOT Insight CCD camera (Diagnostic instruments Inc., Sterling Heights, MI, USA), and all images were processed using the SPOT Advanced software (Version 5.2; Diagnostic instruments Inc., Sterling Heights, MI, USA) and Photoshop 2020 (Adobe Systems). Two hundred ommatidia collected from 20 individual fly eyes were examined for each condition and used for statistical analysis. The average number of rhabdomeres per ommatidia was presented as the indication of ommatidial integrity.

Series [4] has as its system PAPD5-overexpressing cells. The experiment in a line: LDH cell death assay, PAPD5-overexpressing cells. The series is classed as cell-based. Here is the method:
as §1
(§3) The LDH assay on SK-N-MC cells were performed according to manufacturer's instructions (CytoTox 96 Non-Radioactive Cytotoxicity Assay Kit, Promega).

Series [5] relates to telomerase RNA component (TERC). The note with it: cited from earlier work.
The subject of series [6] is EGFPCAG78-expressing SK-N-MC cells. In words: LDH cell death assay, EGFPCAG78-expressing SK-N-MC cells. The series is classed as cell-based. Here is the method:
as §1, §3

Series [7] deals with TAK1-MKK4-JNK pro-apoptotic signaling in EGFP-Htt1-550CAG89-expressing cells. In words: Western blotting of TAK1-MKK4-JNK caspase cascade, EGFP-Htt1-550CAG89-expressing SK-N-MC cells. In kind it is cell-based. Here is the method:
as §1, §2

Chain of PAPD5 (Q8NDF8 whole entry, the tested form may be a part): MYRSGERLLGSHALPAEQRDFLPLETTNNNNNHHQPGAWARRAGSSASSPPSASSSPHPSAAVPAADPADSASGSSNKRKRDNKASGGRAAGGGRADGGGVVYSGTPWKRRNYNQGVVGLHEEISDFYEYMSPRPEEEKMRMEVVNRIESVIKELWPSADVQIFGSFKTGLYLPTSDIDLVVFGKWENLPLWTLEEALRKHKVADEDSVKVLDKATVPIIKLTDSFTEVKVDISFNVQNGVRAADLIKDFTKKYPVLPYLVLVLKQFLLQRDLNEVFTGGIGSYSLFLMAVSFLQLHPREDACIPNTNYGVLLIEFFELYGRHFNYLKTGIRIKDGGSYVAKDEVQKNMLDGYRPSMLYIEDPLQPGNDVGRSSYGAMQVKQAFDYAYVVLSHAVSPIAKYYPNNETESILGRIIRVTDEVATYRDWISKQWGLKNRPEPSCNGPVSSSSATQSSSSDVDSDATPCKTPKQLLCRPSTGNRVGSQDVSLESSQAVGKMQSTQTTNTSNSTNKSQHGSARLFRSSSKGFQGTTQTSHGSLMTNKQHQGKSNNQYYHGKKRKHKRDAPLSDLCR

Regarding `CCOC(=O)c1cnc2ccc(OC(F)(F)F)cc2c1Nc1ccccc1C(=O)O` [BCH001], in series [1], the “neurites (primary, secondary, tertiary)” value is “recovered to their control levels”; the “puncta number of Bassoon” value was “restoration”; the “puncta number of Homer1” value was “restoration”; the “puncta number of Synapsin I” value is “restoration”. In addition, in [1], the synaptic defects entry is listed as “fully rescued”. Besides, in the series on A-beta peptide toxicity, the “A-beta peptide toxicity (retinal degeneration)” value is recorded as “capable of suppressing”. Besides, in series [2], the TAK1/MKK4/JNK phosphorylation result is “suppressed in a dose-dependent manner” and the “caspase 3 cleavage” value was “suppressed in a dose-dependent manner”. Moreover, on PAPD5, the PAPD5 enzyme activity result was “specifically target”. In [3], the “HttQ93-induced retinal neurodegeneration (rhabdomere numbers)” value is listed as “marked suppression”. Also, the PAPD5-induced cell death result in series [4] (200 nM BCH001, FIG. 4A) is recorded as “sufficient to suppress”. The “cell death induced by the compound” value in series [4] (400 nM, FIG. 4A) is given as “does not induce cell death”. Moreover, the PAPD5-induced cell death entry in series [4] (PAPD5 overexpression) was “suppressed in a dose-dependent manner”. Besides, in [5], the “3' adenylation of telomerase RNA component (TERC)” value is “reduced”. Besides, the “mutant CAG RNA (EGFPCAG78)-induced cell death” value in series [6] is listed as “completely suppressed”. The negative-log IC50 (pIC50) in series [6] (Homo sapiens, FIG. 11, read-out: IC50 of suppression of EGFPCAG78-induced cell death) is 7.83. In addition, in series [7], the “caspase 3 cleavage” value is “suppressed”; the “phosphorylation levels of TAK1, MKK4 and JNK” value was “reduced”.

Usually pIC50 stands for the IC50 on a negative log10 scale, so that one unit is a factor of ten.
